Assay results taken from patent US10028966B2 (Avalyn Pharma Inc., priority 2014, dated 2018).
Like-named read-outs stand apart in the source and are kept apart here.

Experiments:
[1] = biological target: T1, 2C19 (Homo sapiens, UniProt P33261); settings: hepatic microsomes; cited from earlier work
T1 construct: In vitro metabolism studies with hepatic microsomes; from tissue; host or cells: hepatic microsomes

[2] = Intravenous push of pirfenidone, plasma and lung levels; format: in vivo; settings: mouse
[3] = cited from earlier work; for Cmax: read-out: oral Cmax in IPF patients
[4] = Stability assessment of pirfenidone formulations at 25°C/60% RH and 40°C/75% RH; format: physicochemical; settings: for Measured Pirfenidone / mOsmol/kg / pH: time zero
[5] = Pharmacokinetics and lung-tissue distribution after oral gavage or intratracheal aerosol; format: in vivo, Sprague-Dawley rats; settings: for half-life: po, 70 mg/kg
Description: Solutions were vortexed until all crystals dissolved. […] Plasma samples were taken at pre-dose, 0.08, 0.16, 0.25, 0.5, 0.75, 1.0, 1.5, 2, 4, and 6 hours post dosing. For lung tissue samples, eight additional rats were also dosed 70 mg/kg by the oral route. Lungs were taken at pre-dose 0.08, 0.5, 2, and 4 hours post dosing. Materials were extracted and pirfenidone quantitated as μg/mL plasma and μg/gram lung tissue. […]

[6] = cited from earlier work; for AUC over 0-18 hours / Cmax: human, plasma (Rubino et al., 2009)
[7] = biological target: T2, 2D6 (Homo sapiens, UniProt P10635); settings: hepatic microsomes; cited from earlier work
T2 construct: In vitro metabolism studies with hepatic microsomes; from tissue; host or cells: hepatic microsomes

[8] = Pharmacokinetics and lung-tissue distribution after oral gavage or intratracheal aerosol; format: in vivo, Sprague-Dawley rats; settings: for half-life / Cmax / AUC(0-t): Sprague-Dawley, rat, inhaled or intranasal; for AUC(0-t): read-out: Plasma AUC0-6 hrs; for Lung Cmax: immediate post-dose calculated from direct-lung delivered dose
[9] = 25° C./60% RH, target 1 mg/mL, 5 mM phosphate buffer pH 6.5 plus 1% (v/v) EtOH, 2% (v/v) PG
[10] = 25° C./60% RH, target 1 mg/mL, 5 mM phosphate buffer pH 6.5 plus 8% (v/v) EtOH, 16% (v/v) PG
[11] = 25° C./60% RH, target 15 mg/mL, 5 mM phosphate buffer pH 6.5 plus 1% (v/v) EtOH, 2% (v/v) PG
[12] = 25° C./60% RH, target 23 mg/mL, 5 mM phosphate buffer pH 6.5 plus 4% (v/v) EtOH, 8% (v/v) PG
[13] = 25° C./60% RH, target 30 mg/mL, 5 mM phosphate buffer pH 6.5 plus 6% (v/v) EtOH, 12% (v/v) PG
[14] = 25° C./60% RH, target 38 mg/mL, 5 mM phosphate buffer pH 6.5 plus 8% (v/v) EtOH, 16% (v/v) PG
[15] = 40° C./75% RH, target 1 mg/mL, 5 mM phosphate buffer pH 6.5 plus 1% (v/v) EtOH, 2% (v/v) PG
[16] = 40° C./75% RH, target 1 mg/mL, 5 mM phosphate buffer pH 6.5 plus 8% (v/v) EtOH, 16% (v/v) PG
[17] = 40° C./75% RH, target 15 mg/mL, 5 mM phosphate buffer pH 6.5 plus 1% (v/v) EtOH, 2% (v/v) PG
[18] = 40° C./75% RH, target 23 mg/mL, 5 mM phosphate buffer pH 6.5 plus 4% (v/v) EtOH, 8% (v/v) PG
[19] = 40° C./75% RH, target 30 mg/mL, 5 mM phosphate buffer pH 6.5 plus 6% (v/v) EtOH, 12% (v/v) PG
[20] = 40° C./75% RH, target 38 mg/mL, 5 mM phosphate buffer pH 6.5 plus 8% (v/v) EtOH, 16% (v/v) PG
[21] = target 1 mg/mL, 5 mM phosphate buffer pH 6.5 plus 1% (v/v) EtOH, 2% (v/v) PG
[22] = target 1 mg/mL, 5 mM phosphate buffer pH 6.5 plus 8% (v/v) EtOH, 16% (v/v) PG
[23] = target 15 mg/mL, 5 mM phosphate buffer pH 6.5 plus 1% (v/v) EtOH, 2% (v/v) PG
[24] = target 23 mg/mL, 5 mM phosphate buffer pH 6.5 plus 4% (v/v) EtOH, 8% (v/v) PG
[25] = target 30 mg/mL, 5 mM phosphate buffer pH 6.5 plus 6% (v/v) EtOH, 12% (v/v) PG
[26] = target 38 mg/mL, 5 mM phosphate buffer pH 6.5 plus 8% (v/v) EtOH, 16% (v/v) PG

T1 sequence (P33261 whole entry): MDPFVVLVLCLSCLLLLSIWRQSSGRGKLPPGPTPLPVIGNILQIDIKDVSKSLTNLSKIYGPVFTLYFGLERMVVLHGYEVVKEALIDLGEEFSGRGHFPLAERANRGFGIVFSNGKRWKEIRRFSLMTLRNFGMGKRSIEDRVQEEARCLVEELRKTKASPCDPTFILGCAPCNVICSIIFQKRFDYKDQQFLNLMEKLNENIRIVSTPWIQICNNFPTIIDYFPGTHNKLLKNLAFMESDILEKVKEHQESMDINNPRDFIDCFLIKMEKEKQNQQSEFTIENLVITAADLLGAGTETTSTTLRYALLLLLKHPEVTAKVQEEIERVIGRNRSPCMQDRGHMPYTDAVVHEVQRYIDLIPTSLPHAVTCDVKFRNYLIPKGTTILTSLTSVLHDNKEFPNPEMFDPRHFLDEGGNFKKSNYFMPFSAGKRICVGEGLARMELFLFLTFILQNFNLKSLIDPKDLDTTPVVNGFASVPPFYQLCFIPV
T2 sequence (P10635 whole entry): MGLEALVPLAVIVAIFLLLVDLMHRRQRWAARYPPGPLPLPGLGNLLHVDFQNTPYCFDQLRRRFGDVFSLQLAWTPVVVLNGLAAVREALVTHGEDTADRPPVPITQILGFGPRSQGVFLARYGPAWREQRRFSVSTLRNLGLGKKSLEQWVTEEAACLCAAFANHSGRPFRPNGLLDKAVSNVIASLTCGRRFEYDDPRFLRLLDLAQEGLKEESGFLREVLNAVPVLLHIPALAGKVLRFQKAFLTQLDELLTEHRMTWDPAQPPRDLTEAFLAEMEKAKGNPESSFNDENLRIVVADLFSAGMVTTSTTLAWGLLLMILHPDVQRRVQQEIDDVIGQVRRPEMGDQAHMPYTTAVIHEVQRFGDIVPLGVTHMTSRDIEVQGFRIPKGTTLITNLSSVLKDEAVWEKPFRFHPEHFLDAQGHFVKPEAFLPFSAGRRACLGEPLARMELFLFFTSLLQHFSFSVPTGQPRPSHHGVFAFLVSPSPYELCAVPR

Cc1ccc(=O)n(-c2ccccc2)c1 [pirfenidone, 5-methyl-1-phenyl-2-(1H)-pyridone]
contribution to pirfenidone metabolism [1]: less than 13%
Lung Cmax ([2]; 40 mg/kg intravenous dose): 30 mcg/gram wet tissue
pirfenidone in the lung tissue after subtracting blood content ([2]; 40 mg/kg intravenous dose, blood assumed 40% of wet lung weight): about 8 mcg/g
wet lung half-life, longer than the plasma half-life ([2]; intravenous push): about 45%
Cmax ([2]; plasma, 40 mg/kg intravenous dose): ~55000 ng/mL
time plasma level at or greater than 5 mcg/mL ([3]; 801 mg oral pirfenidone, human-measured value): 4 h
oral Cmax in IPF patients ([3]; fasting-state): about 15.7 mcg/mL
Cmax ([3]; fasting-state): ~84 µM
increase in Tmax ([3]; oral, fed-state): seven-fold
reduction in Cmax ([3]; oral, fed-state): ~50%
reduction in overall exposure ([3]; oral, fed-state): 10-15%
oral Cmax in IPF patients ([3]; recommended fed-state): about 7.9 mcg/mL
Cmax ([3]; recommended fed-state): ~42 µM
Pirfenidone at Time = 0 [4, 9]: 1.0 mg/mL
Pirfenidone at Time = 1 month [4, 9]: 1.0 mg/mL
Pirfenidone at Time = 3 month [4, 9]: 1.0 mg/mL
Pirfenidone at Time = 6 month [4, 9]: 1.0 mg/mL
Pirfenidone at Time = 0 [4, 10]: 1.0 mg/mL
Pirfenidone at Time = 1 month [4, 10]: 1.0 mg/mL
Pirfenidone at Time = 3 month [4, 10]: 1.0 mg/mL
Pirfenidone at Time = 6 month [4, 10]: 1.0 mg/mL
Pirfenidone at Time = 0 [4, 11]: 16.1 mg/mL
Pirfenidone at Time = 1 month [4, 11]: 15.1 mg/mL
Pirfenidone at Time = 3 month [4, 11]: 14.9 mg/mL
Pirfenidone at Time = 6 month [4, 11]: 15.4 mg/mL
Pirfenidone at Time = 0 [4, 12]: 24.1 mg/mL
Pirfenidone at Time = 1 month [4, 12]: 22.1 mg/mL
Pirfenidone at Time = 3 month [4, 12]: 22.3 mg/mL
Pirfenidone at Time = 6 month [4, 12]: 23.2 mg/mL
Pirfenidone at Time = 0 [4, 13]: 30.3 mg/mL
Pirfenidone at Time = 1 month [4, 13]: 30.1 mg/mL
Pirfenidone at Time = 3 month [4, 13]: 29.6 mg/mL
Pirfenidone at Time = 6 month [4, 13]: 31.0 mg/mL
Pirfenidone at Time = 0 [4, 14]: 38.9 mg/mL
Pirfenidone at Time = 1 month [4, 14]: 38.3 mg/mL
Pirfenidone at Time = 3 month [4, 14]: 38.0 mg/mL
Pirfenidone at Time = 6 month [4, 14]: 39.2 mg/mL
Pirfenidone at Time = 0 [4, 15]: 1.0 mg/mL
Pirfenidone at Time = 1 month [4, 15]: 1.0 mg/mL
Pirfenidone at Time = 3 month [4, 15]: 1.0 mg/mL
Pirfenidone at Time = 6 month [4, 15]: 1.0 mg/mL
Pirfenidone at Time = 0 [4, 16]: 1.0 mg/mL
Pirfenidone at Time = 1 month [4, 16]: 1.0 mg/mL
Pirfenidone at Time = 3 month [4, 16]: 1.0 mg/mL
Pirfenidone at Time = 6 month [4, 16]: 1.0 mg/mL
Pirfenidone at Time = 0 [4, 17]: 16.1 mg/mL
Pirfenidone at Time = 1 month [4, 17]: 15.1 mg/mL
Pirfenidone at Time = 3 month [4, 17]: 14.8 mg/mL
Pirfenidone at Time = 6 month [4, 17]: 15.5 mg/mL
Pirfenidone at Time = 0 [4, 18]: 24.1 mg/mL
Pirfenidone at Time = 1 month [4, 18]: 22.4 mg/mL
Pirfenidone at Time = 3 month [4, 18]: 22.1 mg/mL
Pirfenidone at Time = 6 month [4, 18]: 23.3 mg/mL
Pirfenidone at Time = 0 [4, 19]: 30.3 mg/mL
Pirfenidone at Time = 1 month [4, 19]: 30.3 mg/mL
Pirfenidone at Time = 3 month [4, 19]: 30.0 mg/mL
Pirfenidone at Time = 6 month [4, 19]: 31.1 mg/mL
Pirfenidone at Time = 0 [4, 20]: 38.9 mg/mL
Pirfenidone at Time = 1 month [4, 20]: 38.4 mg/mL
Pirfenidone at Time = 3 month [4, 20]: 38.0 mg/mL
Pirfenidone at Time = 6 month [4, 20]: 37.9 mg/mL
Measured Pirfenidone [4, 21]: 1.0 mg/mL
mOsmol/kg [4, 21]: 452 mOsmol/kg
pH [4, 21]: 6.69
Measured Pirfenidone [4, 22]: 1.0 mg/mL
mOsmol/kg [4, 22]: 3590 mOsmol/kg
pH [4, 22]: 6.98
Measured Pirfenidone [4, 23]: 16.1 mg/mL
mOsmol/kg [4, 23]: 512 mOsmol/kg
pH [4, 23]: 6.65
Measured Pirfenidone [4, 24]: 24.1 mg/mL
pH [4, 24]: 6.78
Measured Pirfenidone [4, 25]: 30.3 mg/mL
mOsmol/kg [4, 25]: 2863 mOsmol/kg
pH [4, 25]: 6.90
Measured Pirfenidone [4, 26]: 38.9 mg/mL
mOsmol/kg [4, 26]: 3750 mOsmol/kg
pH [4, 26]: 7.04
half-life ([5]; Sprague-Dawley, rat, lung, read-out: Lung T1/2 α (only α observed)): 45 min
half-life ([5]; Sprague-Dawley, rat, plasma, read-out: Plasma T1/2): 30 min
Cmax ([5]; Sprague-Dawley, rat, plasma, oral 70 mg/kg): 8100 ng/mL
AUC(0-t) ([5]; Sprague-Dawley, rat, plasma, oral 70 mg/kg, read-out: Plasma AUC0-6 hrs): 13500 ng·h/mL
Lung Cmax ([5]; oral 70 mg/kg): 3.6 µg/g
Lung TOE, time of exposure over 1 μg/g lung tissue ([5]; oral 70 mg/kg): 89 min
T1/2 beta ([6]; aerosol 110 mg RDD, lung tissue, from plasma T1/2, Rubino et al., 2009 fasted-state): 150 min
T1/2 beta ([6]; aerosol 110 mg RDD, plasma, Rubino et al., 2009 fasted-state): 150 min
T1/2 beta ([6]; aerosol 154 mg RDD, lung tissue, from plasma T1/2, Rubino et al., 2009 fasted-state): 150 min
T1/2 beta ([6]; aerosol 154 mg RDD, plasma, Rubino et al., 2009 fasted-state): 150 min
T1/2 beta ([6]; aerosol 185 mg RDD, lung tissue, from plasma T1/2, Rubino et al., 2009 fasted-state): 150 min
T1/2 beta ([6]; aerosol 185 mg RDD, plasma, Rubino et al., 2009 fasted-state): 150 min
AUC over 0-18 hours ([6]; oral 801 mg fasted-state): 67700 ng·h/mL
Cmax ([6]; oral 801 mg fasted-state): 14.2 microgram/mL
AUC over 0-18 hours ([6]; oral 801 mg fed-state): 58900 ng·h/mL
Cmax ([6]; oral 801 mg fed-state): 7.9 microgram/mL
T1/2 beta ([6]; oral 801 mg fasted-state, lung tissue, from plasma T1/2, Rubino et al., 2009): 150 min
T1/2 beta ([6]; oral 801 mg fasted-state, plasma, Rubino et al., 2009): 150 min
T1/2 beta ([6]; oral 801 mg fed-state, lung tissue, from plasma T1/2, Rubino et al., 2009): 144 min
T1/2 beta ([6]; oral 801 mg fed-state, plasma, Rubino et al., 2009): 144 min
contribution to pirfenidone metabolism [7]: less than 13%
half-life ([8]; lung, 1 mg/kg, aerosol 1 mg/kg, read-out: Lung T1/2 α): < 1 min
half-life ([8]; lung, 1 mg/kg, aerosol 1 mg/kg, read-out: Lung T1/2 β): 45 min
half-life ([8]; lung, 5 mg/kg, aerosol 5 mg/kg, read-out: Lung T1/2 α): < 1 min
half-life ([8]; lung, 5 mg/kg, aerosol 5 mg/kg, read-out: Lung T1/2 β): 45 min
half-life ([8]; plasma, 1 mg/kg, aerosol 1 mg/kg, read-out: Plasma T1/2): 30 min
half-life ([8]; plasma, 5 mg/kg, aerosol 5 mg/kg, read-out: Plasma T1/2): 30 min
Cmax ([8]; plasma, aerosol 1 mg/kg): 1100 ng/mL
AUC(0-t) ([8]; plasma, aerosol 1 mg/kg): 900 ng·h/mL
Cmax ([8]; plasma, aerosol 5 mg/kg): 7000 ng/mL
AUC(0-t) ([8]; plasma, aerosol 5 mg/kg): 4500 ng·h/mL
Lung AUC (for time >1 μg/g) ([8]; aerosol 1 mg/kg): 5.2 mg·h/kg
Lung TOE, time of exposure over 1 μg/g lung tissue ([8]; aerosol 1 mg/kg): 5 min
Lung AUC (for time >1 μg/g) ([8]; aerosol 5 mg/kg): 25.4 mg·h/kg
Lung TOE, time of exposure over 1 μg/g lung tissue ([8]; aerosol 5 mg/kg): 84 min
Lung Cmax ([8]; aerosol (bolus intratracheal) 1 mg/kg): 101 µg/g
Lung Cmax ([8]; aerosol (bolus intratracheal) 5 mg/kg): 508 µg/g
Lung AUC (for time >1 μg/g) ([8]; oral 70 mg/kg): 4.3 mg·h/kg
